From publication PMC5352758, “Methods for 20S Immunoproteasome and 20S Constitutive Proteasome Determination Based on SPRI Biosensors” (Cellular and Molecular Bioengineering, 2017)
Where a SMILES comes first, the peptide text is derived from it. [ ]: non-standard residue; d: D form. hPhe = N[C@@H](CCc1ccccc1)C(=O)O; Nle = CCCC[C@H](N)C(=O)O

What was measured:
[1] = biological target: T1, 20Si (immunoproteasome) (Homo sapiens, UniProt P28062+P28065+P40306); test: SPRI measurement of ability of immobilized potential receptor to bind 20Si; assay type: binding; details: for Selectivity of binding 20Si vs 20Sc, in words (text summary of Table 4): 20Si or 20Sc 2.8 μg mL−1; for Ability to bind 20Si: receptor at 1, 10, 100 μg mL−1, 20Si 2.8 μg mL−1, SPRI signal increase of less than 20% = lack of ability to bind
T1 construct: purchased www.vivabioscience.com (Basepoint Business Centre, United Kingdom)
Procedure: (§1) Chips were immersed in an ethanolic solution 1-octadecanothiol (ODM) ([…]) for 24 h at room temperature. Then the biosensors have been repeatedly washed in ethanol and water, and dried under a stream of argon. Chips prepared in this way can be stored and used for subsequent measurements. […] After that time, the process of immobilization of the inhibitor by hydrophobic interaction was completed. A biosensor prepared in this way should be used directly for analysis. A diagram of the chip appears in Fig. 1a.
(§2) The chip was immersed in a vessel with an ethanolic solution of cysteamine for 2 h at room temperature. After 2 h, the chip was rinsed with ethanol and water and dried under a stream of argon. A chip prepared in this manner can be stored and used for subsequent measurements. Each of the synthesised inhibitor solutions was activated with NHS (250 mM) and EDC (250 mM) in the ratio 1: 1 and carbonate buffer (pH 8.5) as a suitable reaction medium. Next, 3 μL of this solution was placed on each of nine active sites on the amine-modified surface. The closed vessel with the biosensor and under appropriate conditions of humidity was incubated at 37 °C for 1 h. Next, the biosensor was rinsed with water and dried under a stream of argon. A biosensor prepared in this way should be used directly for testing and analysis.
(§3) SPRI measurements for the protein biosensor array were performed as described elsewhere.[8],[11] Briefly, the measurements were performed at a fixed angle of incident light and the reflectivity was simultaneously measured cross an entire chip surface. The contrast values obtained for all pixels across a particular sample single spot were integrated. The signal was measured twice on the basis of registered images, after immobilization of the inhibitor and after immunoproteasome interaction. The SPRI signal, which is proportional to the coupled protein, was obtained by subtraction between the signals before and after interaction with protein for each spot separately.
(§4) A background correction was applied i.e. some of the sites on the biosensor covered with PBS buffer were used as a control. Non-specific binding was monitored by measuring the SPRI signal at a site on the chip without the receptor (ligand). Minimization of non-specific binding was achieved by preparing samples in PBS buffer (NaCl an KCl concentration ~200 mM) at pH 7.4 near the isoelectric point of the protein.
(§5) A crucial factor for the application of newly synthesised potential receptors is their selectivity. Selectivity for 20Si or 20Sc was checked using SPRI measurements. […] Measurements were performed as described above at three different concentrations of potential receptors (1, 10, 100 μg mL^−1) at a fixed concentration of 20Si (2.8 μg mL^−1) or 20Sc (2.8 μg mL^−1). An increase in the SPRI signal of less than 20% was considered to imply lack of ability to bind 20Si or 20Sc.

[2] = biological target: 20Sc (constitutive proteasome; commercially available proteasome) (Homo sapiens, UniProt P28072+P28074+Q99436); test: SPRI measurement of ability of immobilized potential receptor to bind 20Sc; assay type: binding, mammalian; details: receptor at 1, 10, 100 μg mL−1, 20Sc 2.8 μg mL−1, SPRI signal increase of less than 20% = lack of ability to bind
Procedure: as §1, §2, §3, §4, §5

[3] = biological target: T2, chymotrypsin (Bos taurus, UniProt P00766); test: Inhibition of amidolytic activity of chymotrypsin (chromogenic substrate); assay type: biochemical; details: substrate Suc-Phe-pNA 8 mM, tris buffer pH 9.0, chymotrypsin 0.4 units mL−1, 3 min pre-incubation at 37 °C, 20 min incubation, absorbance 405 nm, average of triplicate
T2 construct: purchased Sigma (Schnelldorf, Germany)
Procedure: (§6) Determination of amidolytic activity was performed as described by Okada.[22] The synthetic amidolytic (chromogenic) substrates (Bzl-L-Arg-pNA.HCl for trypsin and Suc-Phe-pNA for chymotrypsin) are selected to give appropriate specificity for inhibition of the serine proteases. A chromophore (para-nitroaniline = pNA, yellow color) is cleaved from the C-terminus amide bond by the protease, and the absorbance can be detected.
(§7) A detailed description of the method is given below. The buffer and the enzyme solution contained: • […] buffer—0.5 mL (pH 7.5), enzyme: trypsin (0.4 units mL^−1), synthetic substrate: Bzl-L-Arg-pNA.HCl (0.2 mL, 8 mM); • tris buffer—0.6 mL (pH 9.0), enzyme: chymotrypsin (0.4 units mL^−1), synthetic substrate: Suc-Phe-pNA (0.2 mL, 8 mM).
(§8) The buffer and 0.1 mL of enzyme solution were added to 0.2 mL of the examined compound dissolved in 0.15 M NaCl (1–11) (as control 0.15 M NaCl). The mixture was incubated for 3 min at 37 °C, then the synthetic substrate was added. After 20 min of incubation, the reaction was stopped by adding 0.1 mL of 50% acetic acid, and the absorbance of the released p-nitroaniline was measured at 405 nm (Spekol 1300, Analytic Jena). Every value represents the average of triplicate determination. The IC50 value was taken as the concentration of the inhibitor which decreased the absorbance at 405 nm by 50% compared with the absorbance measured under the same conditions without the inhibitor.

[4] = test system: trypsin; test: Inhibition of amidolytic activity of trypsin (chromogenic substrate); assay type: biochemical; details: substrate Bzl-L-Arg-pNA.HCl 8 mM, borane buffer pH 7.5, trypsin 0.4 units mL−1, 3 min pre-incubation at 37 °C, 20 min incubation, absorbance 405 nm, average of triplicate
Procedure: as §6, §7, §8

[5] = biological target: T3, 20Si (Homo sapiens, UniProt P28062+P28065+P40306); test: Specificity of SPRI biosensor: 20Si determination in the presence of an interferent; assay type: binding; details: added 20Si 2.80 μg mL−1; for Found 20Si: tripeptide as receptor via cysteamine linker, 20Sc 2.8 μg mL−1, ratio 20Si vs. 20Sc 1:1, 95% confidence limits, 12 measurements; for Recovery: tripeptide as receptor, 20Sc 2.8 μg mL−1, ratio 1:1
T3 construct: purchased www.vivabioscience.com (Basepoint Business Centre, United Kingdom)
Procedure: as §3, §4
The specificity of the developed biosensor, especially against 20Sc, is crucial factor for the device’s application. Specificity was investigated at different ratios of 20Si and 20Sc and various 20Si concentrations. Additionally, tolerance of human albumin was checked.
This investigation is crucial for the determination of 20Si in the presence of 20Sc. Series of model solutions containing both 20Si (2.8 μg mL^−1) and 20Sc (2.8 μg mL^−1) were determined using four developed biosensors specific for 20Si. The confidence limits of the results are a measure of measurement precision.

| Compound | Selectivity of binding 20Si vs 20Sc, in words (text summary of Table 4) [1] | Ability to bind 20Si [1] | Ability to bind 20Sc [2] | IC50 [3] | IC50 [4] | Found 20Si [5] | Recovery [5] |
| --- | --- | --- | --- | --- | --- | --- | --- |
| C[C@H](NC(=O)[C@@H](N)Cc1ccccc1)C(=O)N[C@@H](Cc1ccccc1)C(=O)O [compound 3, H-Phe-Ala-Phe-OH] (H-Phe-Ala-Phe-OH) | able to bind both 20Si and 20Sc | + (+, bound) | + (+, bound) | 187 ± 14 µM | – | – | – |
| CC(C)C[C@H](NC(=O)[C@H](Cc1ccccc1)NC(=O)[C@@H](N)Cc1ccccc1)C(=O)O [compound 6, H-Phe-Phe-Leu-OH] (H-Phe-Phe-Leu-OH) | selectivity to 20Sc | – (−, lack of bonding) | + (+, bound) | 174 ± 13 µM | – | – | – |
| CC(C)C[C@H](NC(=O)[C@@H](N)CC(C)C)C(=O)N[C@@H](Cc1ccccc1)C(=O)O [compound 8, H-Leu-Leu-Phe-OH] (H-Leu-Leu-Phe-OH) | selective inhibition of 20Si | + (+, bound) | – (−, lack of bonding) | 152 ± 12 µM | 79 ± 6 µM | 2.88 ± 0.44 µg/mL | 103% |
| CC(C)C[C@H](NC(=O)[C@@H](N)Cc1ccccc1)C(=O)N[C@@H](Cc1ccccc1)C(=O)O [compound 1, H-Phe-Leu-Phe-OH] (H-Phe-Leu-Phe-OH) | able to bind both 20Si and 20Sc | + (+, bound) | + (+, bound) | 178 ± 14 µM | – | – | – |
| N[C@@H](Cc1ccccc1)C(=O)N[C@@H](CCc1ccccc1)C(=O)N[C@@H](Cc1ccccc1)C(=O)O [compound 7, H-Phe-hPhe-Phe-OH] (H-Phe-[hPhe]-Phe-OH) | able to bind both 20Si and 20Sc | + (+, bound) | + (+, bound) | 185 ± 14 µM | 44 ± 3 µM | – | – |
| N[C@@H](Cc1ccccc1)C(=O)N[C@@H](Cc1ccccc1)C(=O)N[C@@H](Cc1ccccc1)C(=O)O [compound 2, H-Phe-Phe–Phe-OH] (H-Phe-Phe-Phe-OH) | able to bind both 20Si and 20Sc | + (+, bound) | + (+, bound) | 185 ± 14 µM | – | – | – |
| CC(C)C[C@H](NC(=O)[C@H](CC(C)C)NC(=O)[C@@H](N)Cc1ccccc1)C(=O)O [compound 5, H-Phe-Leu–Leu-OH] (H-Phe-Leu-Leu-OH) | selective inhibition of 20Si | + (+, bound) | – (−, lack of bonding) | 184 ± 14 µM | – | 2.97 ± 0.40 µg/mL | 106% |

Now from value to molecule:

| Selectivity of binding 20Si vs 20Sc, in words (text summary of Table 4) [1] | Ability to bind 20Si [1] | Ability to bind 20Sc [2] | IC50 [3] | IC50 [4] | Found 20Si [5] | Recovery [5] | Compound |
| --- | --- | --- | --- | --- | --- | --- | --- |
| selective inhibition of 20Si | + (+, bound) | – (−, lack of bonding) | 1830 ± 150 µM | 12000 ± 960 µM | 2.89 ± 0.60 µg/mL | 103% | CC(C)C[C@H](NC(=O)[C@H](Cc1ccccc1)NC(=O)[C@@H](N)CC(C)C)C(=O)O [compound 10, H-Leu-Phe-Leu-OH] (H-Leu-Phe-Leu-OH) |
| does not capture any form of 20S | – (−, lack of bonding) | – (−, lack of bonding) | 184 ± 14 µM | – | – | – | CC(C)C[C@H](N)C(=O)N[C@@H](Cc1ccccc1)C(=O)N[C@@H](Cc1ccccc1)C(=O)O [compound 4, H-Leu-Phe–Phe-OH] (H-Leu-Phe-Phe-OH) |
| selective inhibition of 20Si | + (+, bound) | – (−, lack of bonding) | 1920 ± 150 µM | 18000 ± 1440 µM | 2.99 ± 0.47 µg/mL | 107% | CCCC[C@H](NC(=O)[C@H](CC(C)C)NC(=O)[C@@H](N)Cc1ccccc1)C(=O)O [compound 11, H-Phe-Leu-nLeu-OH] (H-Phe-Leu-[Nle]-OH) |
| selectivity to 20Sc | – (−, lack of bonding) | + (+, bound) | 141 ± 11 µM | – | – | – | N[C@@H](Cc1ccccc1)C(=O)N[C@@H](Cc1ccccc1)C(=O)O [compound 9, H-Phe-Phe-OH] (H-Phe-Phe-OH) |
